Results reported in patent publication US20090215895A1, “Therapeutic and carrier molecules” (PEPLIN BIOLIPIDS PTY LTD, priority 2004, published 2009).

What was measured:
[1] = tested on: HUVEC; assay: Agonist-enhanced neutrophil adherence to HUVEC; type: cell-based, human; conditions: 20 μmol/l, 1 hr pre-treatment, TNF 4 hr
Method: FIG. 11 is a representation showing effect of β-oxa; β-thia and natural PUFA on TNF-enhanced neutrophil adherence to HUVEC. HUVEC were pre-treated with the fatty acids (20 μmol/l) for 60 min at 37° C. before being stimulated with TNF (125 U/200 μl medium) for 4 hr at 37° C. The cells were then co-incubated with neutrophils (5×10^5 cells/well) at 37° C. for 30 min and the degree of neutrophil adherence quantitated. The results are expressed as % of control and represent the mean±SEM of three separate experiments each performed in triplicate. * p<0.05, ***p<0.001, for significant differences between pre-treatment with fatty acid and control (one-way analysis of variance followed by the Dunnett test for multiple comparisons).
Adhesion of neutrophils, prepared by the rapid-single-step method (Ferrante et al, J. Immun. Methods 36:109-117, 1980), to HUVEC isolated from umbilical cords was carried out essentially as described (Huang et al, 1997 supra).
The magnitude of the suppressive effect of -MP3 was dependent on-pre-treatment time and concentration with significant effects observed with a pre-treatment time of 1 hr and a concentration of ≧5 μmol/l.

[2] = Formalin-induced pain test (hind paw licking time); type: in vivo; conditions: 30 min prior to formalin, mean of 5 animals
Method: Investigations of the effects of PT2 on pain induced by phenylquinolic acid (PQ writhing) and formalin have been made. In both the PQ writhing test (FIG. 3) and the formalin algesia test (FIG. 4), PT2 administered by intraperitoneal inoculation reduced pain and compared favourably with pain reduction by aspirin (oral, 100 mg/kg). In these tests, the EPUFA was administered 30 min before the pain stimulus and effects recorded over the following 20 min.
Investigations of PT2 in the formalin-induced analgesia model looking specifically at the biphasic response have also been undertaken and are shown in Table 1. It is well documented that in this model, aspirin suppresses only pain related to the inflammatory process (15-20 mins post-administration of formalin), while morphine suppresses pain in both phases of the response (0-5 min and 15-20 min).
Compounds were administered intraperationedly (ip) 30 min prior to the administration of formalin (0.02 ml, 1% solution) via subplantar injection into the right hind paw. Reduction of the induced hind paw licking time recorded during the following 0-5 min period (Phase I response) or 15-20 min period (Phase II response) was determined. The data in Table 1 are the mean responses of 5 animals in each group.

[3] = biological target: T1, PKC isozyme α (Homo sapiens, UniProt P17252); assay: PMA-induced PKC translocation in HL-60 cells (Western blot); type: cell-based; set-up: key: +++: strong inhibition of PKC activation; −: no inhibition of PKC activation; conditions: 20 μM, 60 min
T1 construct: endogenous in cells; host or cells: HL-60
Method: (§1) The effects of nitroanalogs of PUFAs on PKC activation were determined. Lx compounds at a concentration of 20 μM were incubated with the HL-60 cell line (final condition 10^6 cells/ml) for 60 min. PKC activation was then attempted to be induced by PMA. PKC enzyme translocation was quantitated by Western blot.

[4] = biological target: T2, PKC isozyme β2 (Homo sapiens, UniProt P05771); assay: as above; type: cell-based; set-up: key: +++: strong inhibition of PKC activation; −: no inhibition of PKC activation; conditions: 20 μM, 60 min
T2 construct: endogenous in cells; host or cells: HL-60
T2 sequence (P05771 1-673 isoform P05771-2): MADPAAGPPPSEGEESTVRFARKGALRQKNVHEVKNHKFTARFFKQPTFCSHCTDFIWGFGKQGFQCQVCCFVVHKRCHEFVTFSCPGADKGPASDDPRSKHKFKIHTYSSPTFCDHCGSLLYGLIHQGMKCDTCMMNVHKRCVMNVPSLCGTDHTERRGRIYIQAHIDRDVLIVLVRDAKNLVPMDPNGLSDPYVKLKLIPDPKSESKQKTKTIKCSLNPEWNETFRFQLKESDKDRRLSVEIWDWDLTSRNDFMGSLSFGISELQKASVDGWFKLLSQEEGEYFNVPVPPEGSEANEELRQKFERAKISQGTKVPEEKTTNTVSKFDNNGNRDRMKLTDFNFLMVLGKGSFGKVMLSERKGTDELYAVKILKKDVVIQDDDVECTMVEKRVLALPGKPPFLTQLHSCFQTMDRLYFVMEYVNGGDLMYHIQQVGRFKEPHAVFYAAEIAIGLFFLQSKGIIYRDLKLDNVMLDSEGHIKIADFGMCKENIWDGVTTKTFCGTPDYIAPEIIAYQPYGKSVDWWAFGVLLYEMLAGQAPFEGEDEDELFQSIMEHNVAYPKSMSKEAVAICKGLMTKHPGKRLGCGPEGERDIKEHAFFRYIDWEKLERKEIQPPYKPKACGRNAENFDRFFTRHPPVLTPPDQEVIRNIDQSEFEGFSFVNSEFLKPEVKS
Method: as §1

[5] = biological target: T3, PKC isozyme δ (Homo sapiens, UniProt Q05655); assay: as above; type: cell-based; set-up: key: +++: strong inhibition of PKC activation; −: no inhibition of PKC activation; conditions: 20 μM, 60 min
T3 construct: endogenous in cells; host or cells: HL-60
T3 sequence (Q05655 whole entry): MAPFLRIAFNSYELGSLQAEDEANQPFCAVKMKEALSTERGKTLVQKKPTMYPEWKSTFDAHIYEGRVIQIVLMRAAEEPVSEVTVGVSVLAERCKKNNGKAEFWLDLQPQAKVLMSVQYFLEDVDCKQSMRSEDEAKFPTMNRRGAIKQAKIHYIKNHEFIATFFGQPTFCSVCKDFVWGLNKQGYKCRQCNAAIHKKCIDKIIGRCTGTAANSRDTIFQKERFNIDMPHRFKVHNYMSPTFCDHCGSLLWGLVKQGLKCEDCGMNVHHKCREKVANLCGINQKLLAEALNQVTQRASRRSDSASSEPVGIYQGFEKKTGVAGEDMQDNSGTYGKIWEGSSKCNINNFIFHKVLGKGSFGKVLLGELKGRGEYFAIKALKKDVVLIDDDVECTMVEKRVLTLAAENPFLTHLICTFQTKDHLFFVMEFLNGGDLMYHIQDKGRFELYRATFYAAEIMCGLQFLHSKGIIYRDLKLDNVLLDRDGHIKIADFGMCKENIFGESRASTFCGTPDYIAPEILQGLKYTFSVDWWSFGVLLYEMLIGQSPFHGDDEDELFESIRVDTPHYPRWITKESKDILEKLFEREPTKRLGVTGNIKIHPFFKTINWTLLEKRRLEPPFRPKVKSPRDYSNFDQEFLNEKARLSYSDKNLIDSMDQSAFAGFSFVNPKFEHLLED
Method: as §1

[6] = biological target: T4, PKC isozyme ε (Homo sapiens, UniProt Q02156); assay: as above; type: cell-based; set-up: key: +++: strong inhibition of PKC activation; −: no inhibition of PKC activation; conditions: 20 μM, 60 min
T4 construct: endogenous in cells; host or cells: HL-60
T4 sequence (Q02156 1-737): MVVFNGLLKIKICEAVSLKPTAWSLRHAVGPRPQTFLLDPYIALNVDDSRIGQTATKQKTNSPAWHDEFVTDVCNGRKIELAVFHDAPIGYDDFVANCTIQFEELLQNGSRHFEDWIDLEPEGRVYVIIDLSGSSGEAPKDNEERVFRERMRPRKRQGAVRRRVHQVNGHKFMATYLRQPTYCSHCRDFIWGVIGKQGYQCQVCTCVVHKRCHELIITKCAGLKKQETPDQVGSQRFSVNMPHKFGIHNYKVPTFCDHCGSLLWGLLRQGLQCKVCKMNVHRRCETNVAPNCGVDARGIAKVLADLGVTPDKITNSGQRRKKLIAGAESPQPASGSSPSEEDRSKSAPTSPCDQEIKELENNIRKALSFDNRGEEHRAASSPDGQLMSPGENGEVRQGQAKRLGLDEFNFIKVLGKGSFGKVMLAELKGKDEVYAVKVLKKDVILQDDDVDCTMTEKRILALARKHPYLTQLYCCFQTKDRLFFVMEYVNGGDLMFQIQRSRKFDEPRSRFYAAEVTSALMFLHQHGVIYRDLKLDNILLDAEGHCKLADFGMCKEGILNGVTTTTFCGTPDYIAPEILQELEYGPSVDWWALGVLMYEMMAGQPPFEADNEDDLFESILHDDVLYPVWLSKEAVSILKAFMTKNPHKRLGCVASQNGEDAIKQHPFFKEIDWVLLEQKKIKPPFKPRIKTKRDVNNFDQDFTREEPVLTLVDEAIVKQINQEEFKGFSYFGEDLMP
Method: as §1

[7] = biological target: T5, PKC isozyme β1 (Homo sapiens, UniProt P05771); assay: as above; type: cell-based; set-up: key: +++: strong inhibition of PKC activation; −: no inhibition of PKC activation; conditions: 20 μM, 60 min
T5 construct: endogenous in cells; host or cells: HL-60
T5 sequence (P05771 whole entry): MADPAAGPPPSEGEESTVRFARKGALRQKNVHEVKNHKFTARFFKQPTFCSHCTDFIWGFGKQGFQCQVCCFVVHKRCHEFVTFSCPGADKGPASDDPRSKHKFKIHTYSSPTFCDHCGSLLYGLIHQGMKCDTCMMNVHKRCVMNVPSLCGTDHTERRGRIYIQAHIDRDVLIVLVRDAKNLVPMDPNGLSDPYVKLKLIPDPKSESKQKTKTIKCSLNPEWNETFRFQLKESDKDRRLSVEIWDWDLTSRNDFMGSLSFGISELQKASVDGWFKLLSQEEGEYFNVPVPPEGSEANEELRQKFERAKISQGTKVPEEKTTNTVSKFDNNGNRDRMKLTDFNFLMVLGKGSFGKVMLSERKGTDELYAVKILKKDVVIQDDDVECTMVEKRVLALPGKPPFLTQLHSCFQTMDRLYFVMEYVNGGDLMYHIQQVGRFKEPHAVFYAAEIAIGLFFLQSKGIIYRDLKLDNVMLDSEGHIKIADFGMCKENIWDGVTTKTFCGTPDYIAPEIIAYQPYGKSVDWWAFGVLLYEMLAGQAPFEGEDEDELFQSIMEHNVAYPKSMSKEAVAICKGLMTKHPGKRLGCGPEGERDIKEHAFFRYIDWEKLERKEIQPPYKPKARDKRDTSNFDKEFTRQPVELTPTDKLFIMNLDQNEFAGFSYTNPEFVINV
Method: as §1

[8] = tested on: E-selectin; assay: Effect of lipoxygenase/cyclooxygenase inhibitors and antioxidants on suppression of E-selectin expression by β-oxa-23:4n-6; type: cell-based, human; conditions: HUVEC pre-treated 15 min with inhibitor, then 20 μmol/l β-oxa-23:4n-6 60 min, TNF-α 4 h
Method: FIG. 16 is a representation showing the effects of lipoxygenase/cyclooxygenase inhibitors and antioxidants on the modulation of E-selectin expression on HUVEC by β-oxa-23:4n-6. HUVEC were pre-treated with NDGA, baicalein, MK886, indomethacin, Vitamin E, or diluent (control) for 15 min. The cells were then further incubated with 20 μmol/l β-oxa-23:4n-6 or diluent (control) for 60 min followed by TNF-α (125 U/200 μl medium) for 4 hr and the expression of E-selectin adhesion molecule was determined. The results are expressed as % inhibition of the suppressive effect of β-oxa-23:4n-6 and represent the mean±SEM of three separate experiments each performed in quadruplicate. * p<0.01, for significant differences between pre-treatment with inhibitor and corresponding control (one-way analysis of variance followed by the Dunnett test for multiple comparisons).
Confluent second-passage HUVEC in 96-well tissue culture plates were pre-treated with 10 μmol/l NDGA (non-selective lipoxygenase inhibitor); 10 μmol/l baicalein (a specific 12-lipoxygenase inhibitor); 500 nM MK886 (an inhibitor of the 5-lipoxygenase activating protein), […] indomethacin (a cyclooxygenase inhibitor); 10 μmol/l Vitamin E (an antioxidant); or diluent (control) for 15 min. The cells were then further incubated with 20 μmol/l β-oxa-23:4n-6 or diluent (control) for 60 min followed by TNF-α (125 U) for 4 h. The expression of E-selectin adhesion molecule was determined by ELISA. While none of the inhibitors/antioxidants affected the ability of TNF to enhance E-selectin expression on HUVEC, the ability of β-oxa 23:4n-6 to suppress the action of TNF was reduced when the cells were pre-treated with either NDGA or baicalein but not with indomethacin, Vitamin E or MK886 (FIG. 16).

Compound: CCCCC/C=C\C/C=C\CCCCCCCC(=O)O [18:2n-6, octadecadienoic acid, reference compound]
- Inhibition of TNF-α-enhanced neutrophil adhesion to HUVEC [1]: no significant effect

Compound: CC(=O)Oc1ccccc1C(=O)O [Aspirin, reference compound]
- % inhibition of pain response, Phase I (0-5 mins) ([2]; 300 mg/kg ip): 30%
- % inhibition of pain response, Phase II (15-20 mins) ([2]; 300 mg/kg ip): 91%

Compound: CCCCCCCCCCCCCCCCCC[N+](=O)[O-] [Lx1]
- Inhibition of PKC activation, isozyme α [3]: −
- Inhibition of PKC activation, isozyme β2 [4]: −
- Inhibition of PKC activation, isozyme δ [5]: −
- Inhibition of PKC activation, isozyme ε [6]: −

Compound: CC/C=C\C/C=C\C/C=C\CCCCCCCC[N+](=O)[O-] [Lx2]
- Inhibition of PKC activation, isozyme α [3]: −
- Inhibition of PKC activation, isozyme β1 [7]: −
- Inhibition of PKC activation, isozyme β2 [4]: +++
- Inhibition of PKC activation, isozyme δ [5]: −
- Inhibition of PKC activation, isozyme ε [6]: −

Compound: CCCCC/C=C\C/C=C\C/C=C\CCCCC[N+](=O)[O-] [Lx3]
- Inhibition of PKC activation, isozyme α [3]: −
- Inhibition of PKC activation, isozyme β1 [7]: −
- Inhibition of PKC activation, isozyme β2 [4]: +++
- Inhibition of PKC activation, isozyme δ [5]: −
- Inhibition of PKC activation, isozyme ε [6]: −

Compound: CCCCC/C=C\C/C=C\C/C=C\C/C=C\CCCC[N+](=O)[O-] [Lx4]
- Inhibition of PKC activation, isozyme β1 [7]: +++
- Inhibition of PKC activation, isozyme β2 [4]: +++
- Inhibition of PKC activation, isozyme δ [5]: +++
- Inhibition of PKC activation, isozyme ε [6]: −

Compound: CC/C=C\C/C=C\C/C=C\C/C=C\C/C=C\C/C=C\CCC[N+](=O)[O-] [Lx5]
- Inhibition of PKC activation, isozyme α [3]: −
- Inhibition of PKC activation, isozyme β1 [7]: −
- Inhibition of PKC activation, isozyme β2 [4]: −
- Inhibition of PKC activation, isozyme δ [5]: −

Compound: CC(C)c1ccc2c(c1)c(SC(C)(C)C)c(CC(C)(C)C(=O)O)n2Cc1ccc(Cl)cc1 [MK886]
- Effect on ability of β-oxa 23:4n-6 to suppress TNF-induced E-selectin expression [8]: not

Compound: CN1CC[C@]23c4c5ccc(O)c4O[C@H]2[C@@H](O)C=C[C@H]3[C@H]1C5 [Morphine, reference compound]
- % inhibition of pain response, Phase I (0-5 mins) ([2]; 10 mg/kg ip): 85%
- % inhibition of pain response, Phase II (15-20 mins) ([2]; 10 mg/kg ip): 100%

Compound: CC(Cc1ccc(O)c(O)c1)C(C)Cc1ccc(O)c(O)c1 (stereo not shown) [NDGA, nordihydroguairetic acid]
- Effect on ability of β-oxa 23:4n-6 to suppress TNF-induced E-selectin expression [8]: reduced

Compound: O=c1cc(-c2ccccc2)oc2cc(O)c(O)c(O)c12 [baicalein]
- Effect on ability of β-oxa 23:4n-6 to suppress TNF-induced E-selectin expression [8]: reduced

Compound: COc1ccc2c(c1)c(CC(=O)O)c(C)n2C(=O)c1ccc(Cl)cc1 [indomethacin]
- Effect on ability of β-oxa 23:4n-6 to suppress TNF-induced E-selectin expression [8]: not

Compound: CCCCC/C=C\C/C=C\C/C=C\CCCCCOCC(=O)O [β-oxa-21:3n-6]
- Inhibition of TNF-α-enhanced neutrophil adhesion to HUVEC [1]: inhibited their ability to be stimulated

Compound: CC/C=C\C/C=C\C/C=C\CCCCCCCCSCC(=O)O [β-thia-21:3n-3]
- Inhibition of TNF-α-enhanced neutrophil adhesion to HUVEC [1]: inhibited their ability to be stimulated

Compound: CCCCC/C=C\C/C=C\C/C=C\CCCCCSCC(=O)O [β-thia-21:3n-6]
- Inhibition of TNF-α-enhanced neutrophil adhesion to HUVEC [1]: inhibited their ability to be stimulated

Compound: CCCCC/C=C\C/C=C\C/C=C\C/C=C\CCCCSCC(=O)O [β-thia-23:4n-6]
- Inhibition of TNF-α-enhanced neutrophil adhesion to HUVEC [1]: inhibited their ability to be stimulated
- Inhibition of TNF-α-enhanced neutrophil adhesion to HUVEC ([1]; listed as β-thia 23:4n-6): less active than this β-oxa compound

Compound: Vitamin E
- Effect on ability of β-oxa 23:4n-6 to suppress TNF-induced E-selectin expression [8]: not
